Data published in PubChem BioAssay (NCI).
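Five concentrations, 48 hours, 96-well plates. TGI denotes the concentration required for complete inhibition of growth.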

Key:
Experiment in all cases: NCI tumour cell line growth inhibition, 48 h
SNB-78 CNS = tested on: SNB-78 CNS
DLD-1 colon = tested on: DLD-1 colon
LXFL 529 NSCLC = tested on: LXFL 529 NSCLC
XF 498 CNS = tested on: XF 498 CNS
RXF-631 renal = tested on: RXF-631 renal
HOP-18 NSCLC = tested on: HOP-18 NSCLC
P388/ADR leukemia = tested on: P388/ADR leukemia
SN12K1 renal = tested on: SN12K1 renal
P388 leukemia = tested on: P388 leukemia

## CCCCCCC(C)OC(=O)/C=C(\CC(=O)OC(C)CCCCCC)C(=O)OC(C)CCCCCC (configuration not stated)
SNB-78 CNS
  TGI: > 100 µM
DLD-1 colon
  TGI: > 100 µM
LXFL 529 NSCLC
  TGI: > 100 µM

## CCN(CC)CCCC(C)NC(=O)c1ccc2c(c1)C(=O)c1ccccc1C2=O (configuration not stated)
SNB-78 CNS
  TGI: 47.4 µM
XF 498 CNS
  TGI: 21.3 µM
DLD-1 colon
  TGI: 45.4 µM
LXFL 529 NSCLC
  TGI: 66.9 µM
RXF-631 renal
  TGI: 65.5 µM
HOP-18 NSCLC
  TGI: > 100 µM

## O=c1c2ccccc2[nH]c2cc(O)cc(O)c12
SNB-78 CNS
  TGI: > 100 µM
XF 498 CNS
  TGI: > 100 µM
LXFL 529 NSCLC
  TGI: > 100 µM
HOP-18 NSCLC
  TGI: > 100 µM

## NC1(C(=O)O)CCCC1
P388/ADR leukemia
  TGI: > 625 µM
SN12K1 renal
  TGI: > 625 µM
P388 leukemia
  TGI: > 625 µM
SNB-78 CNS
  TGI: > 444 µM
XF 498 CNS
  TGI: 6.25 µM
DLD-1 colon
  TGI: > 625 µM
HOP-18 NSCLC
  TGI: > 625 µM

## C=C1C(=O)O[C@@H]2[C@H](O)[C@@H](C)[C@@H]3C=CC(=O)[C@@]3(C)[C@H](OC(=O)C=C(C)C)[C@H]12
P388/ADR leukemia
  TGI: 0.272 µM
SN12K1 renal
  TGI: 1.75 µM
P388 leukemia
  TGI: 0.483 µM
XF 498 CNS
  TGI: 2.63 µM
DLD-1 colon
  TGI: 0.878 µM
HOP-18 NSCLC
  TGI: 3.09 µM

## O=C1c2ccccc2C(=O)c2c(O)ccc(O)c21
SNB-78 CNS
  TGI: > 100 µM
DLD-1 colon
  TGI: > 100 µM
LXFL 529 NSCLC
  TGI: > 100 µM

## CS(=O)(=O)OCCCOS(C)(=O)=O
SNB-78 CNS
  TGI: > 100 µM
XF 498 CNS
  TGI: > 100 µM
DLD-1 colon
  TGI: > 100 µM
LXFL 529 NSCLC
  TGI: > 100 µM
HOP-18 NSCLC
  TGI: > 100 µM

## COc1cc(C2c3cc4c(cc3[C@@H](Nc3cccc([N+](=O)[O-])c3)C3COC(=O)[C@H]23)OCO4)cc(OC)c1O (some centres not stated)
P388/ADR leukemia
  TGI: 5.58 µM
SN12K1 renal
  TGI: 10.3 µM
SNB-78 CNS
  TGI: 53.9 µM
XF 498 CNS
  TGI: > 40.2 µM
DLD-1 colon
  TGI: 17.1 µM
HOP-18 NSCLC
  TGI: 39.3 µM

## CCCCCCCCCCCCCCCCCCOCC(COP(=O)([O-])OCC[N+](C)(C)C)OC (configuration not stated)
P388/ADR leukemia
  TGI: 20 µM
SN12K1 renal
  TGI: 24.3 µM
P388 leukemia
  TGI: 11 µM
SNB-78 CNS
  TGI: 49.2 µM
XF 498 CNS
  TGI: 28.8 µM
DLD-1 colon
  TGI: 17.7 µM
HOP-18 NSCLC
  TGI: 27.5 µM
